From patent US10105357B2, “Indication of antibiotic drugs for preparation of cancer inhibition pharmaceutical composition” (LAUNX BIOMEDICAL CO., LTD., priority 2014, dated 2018)
Where two headings read alike, the source gives them in different places.

Key:
[1] = test system: PC3 (p53−) (Prostate Adenocarcinoma); test: Cell viability analysis, prostate cancer PC3; format: cell-based, human; settings: Homo sapiens
[2] = test system: HI650 (Lung Adenocarcinoma); test: Cell viability analysis, lung cancer HI650; format: cell-based, human; settings: Homo sapiens
[3] = test system: 786-O (Renal adenocarcinoma); test: Cell viability analysis, renal cancer 786-O; format: cell-based, human; settings: Homo sapiens, 786-0, 72 h, read-out: The results of antibiotic drug inhibiting cancer cell lines (cell viability analysis), 786-O
[4] = test system: NIH: OVCAR-3; test: Cell viability analysis, ovarian cancer NIH: OVCAR-3; format: cell-based, human; settings: Homo sapiens, OVCAR-3, 72 h, read-out: The results of antibiotic drug inhibiting cancer cell lines (cell viability analysis), NIH-OVCAR-3
[5] = test system: BxPC-3; test: Cell viability analysis, pancreatic cancer BxPC-3; format: cell-based, human; settings: Homo sapiens, BXPC-3, 72 h, read-out: The results of antibiotic drug inhibiting cancer cell lines (cell viability analysis), BxPC-3
[6] = test system: BCC (basal cell carcinoma); test: Cell viability analysis, skin cancer BCC; format: cell-based, human; settings: Homo sapiens, 72 h, read-out: The results of antibiotic drug inhibiting cancer cell lines (cell viability analysis), BCC
[7] = test system: MCF7 (Mammary Gland, Adenocarcinoma); test: Cell viability analysis, breast cancer MCF7; format: cell-based, human; settings: Homo sapiens
[8] = test system: TOV-21G; test: Cell viability analysis, ovarian cancer TOV-21G; format: cell-based, human; settings: Homo sapiens, TOV21G, 72 h, read-out: The results of antibiotic drug inhibiting cancer cell lines (cell viability analysis), TOV-21G
[9] = test system: Hep3B (hepatocellular carcinoma); test: Cell viability analysis, hepatic cancer Hep3B; format: cell-based, human; settings: Homo sapiens, Hep3B, 72 h, read-out: The results of antibiotic drug inhibiting cancer cell lines (cell viability analysis), Hep3B
[10] = test system: MDA-MB-231 (Mammary Gland, Adenocarcinoma); test: Cell viability analysis, breast cancer MDA-MB-231; format: cell-based, human; settings: Homo sapiens, MDA-MB-231, 72 h, read-out: The results of antibiotic drug inhibiting cancer cell lines (cell viability analysis), MDA-MB231
[11] = test system: AsPC-1; test: Cell viability analysis, pancreatic cancer AsPC-1; format: cell-based, human; settings: Homo sapiens, ASPC1, 72 h, read-out: The results of antibiotic drug inhibiting cancer cell lines (cell viability analysis), AsPC-1
[12] = test system: SAS (Tongue squamous cell carcinoma); test: Cell viability analysis, tongue cancer SAS; format: cell-based, human; settings: Homo sapiens, 72 h, read-out: The results of antibiotic drug inhibiting cancer cell lines (cell viability analysis), SAS
[13] = test system: HL-60 (Acute Promyelocytic Leukemia); test: Cell viability analysis, leukemia HL-60; format: cell-based, human; settings: Homo sapiens
[14] = test system: MKN-45 (Gastric Adenocarcinoma); test: Cell viability analysis, gastric cancer MKN-45; format: cell-based, human; settings: Homo sapiens
[15] = test system: U-2OS; test: Cell viability analysis, osteosarcoma U-2OS; format: cell-based, human; settings: Homo sapiens, U2OS, 72 h, read-out: The results of antibiotic drug inhibiting cancer cell lines (cell viability analysis), U2OS
[16] = test system: TSGH-8301 (Urinary Bladder Carcinoma); test: Cell viability analysis, bladder cancer TSGH-8301; format: cell-based, human; settings: Homo sapiens
[17] = test system: AGS (Gastric Adenocarcinoma); test: Cell viability analysis, gastric cancer AGS; format: cell-based, human; settings: Homo sapiens
[18] = test system: C-33A (Cervical carcinoma); test: Cell viability analysis, cervical cancer C-33A; format: cell-based, human; settings: Homo sapiens, C-33-A, 72 h, read-out: The results of antibiotic drug inhibiting cancer cell lines (cell viability analysis), C-33A
[19] = test system: LoVo (Colorectal Adenocarcinoma); test: Cell viability analysis, colon cancer LoVo; format: cell-based, human; settings: Homo sapiens, LoVo
[20] = test system: T24; test: Cell viability analysis, bladder cancer T24; format: cell-based, human; settings: Homo sapiens, T-24, 72 h, read-out: The results of antibiotic drug inhibiting cancer cell lines (cell viability analysis), T24
[21] = test system: HeLa (Cervix Adenocarcinoma); test: Cell viability analysis, cervical cancer HeLa; format: cell-based, human; settings: Homo sapiens, HeLa
[22] = test system: A375 (Amelanotic Melanoma); test: Cell viability analysis, skin cancer A375; format: cell-based, human; settings: Homo sapiens
[23] = test system: HepG2 (Hepatocellular Carcinoma); test: Cell viability analysis, hepatic cancer HepG2; format: cell-based, human; settings: Homo sapiens
[24] = test system: A549 (Lung Adenocarcinoma); test: Cell viability analysis, lung cancer A549; format: cell-based, human; settings: Homo sapiens
[25] = test system: cancer cell lines; test: Cell viability analysis (WST-1) on cancer cell lines; format: cell-based, human; settings: drug 10 μM, 72 hours, WST-1; Table 3
[26] = test system: HCT116 (p53+) (Colorectal Carcinoma)
[27] = 72 h, TSGH-8301, repeated experiment, read-out: The results of antibiotic drug inhibiting cancer cell lines (cell viability analysis), TSGH-8301

CN(C)c1cc(NC(=O)CNC(C)(C)C)c(O)c2c1C[C@H]1C[C@H]3[C@H](N(C)C)C(O)=C(C(N)=O)C(=O)[C@@]3(O)C(O)=C1C2=O [Tigecycline]
viability at 10 µM ([1]; 72 h, read-out: The results of antibiotic drug inhibiting cancer cell lines (cell viability analysis), PC-3, PC-3, repeated experiment): 112% | viability at 10 µM ([1]; 72 h, read-out: cell viability (survival rate), PC3, drug 10 μM, 72 hours, WST-1, OD450 nm): 83% | viability at 10 µM ([2]; NCI-H1650, 72 h, read-out: The results of antibiotic drug inhibiting cancer cell lines (cell viability analysis), H1650, H1650, repeated experiment): 66.9% | viability at 10 µM ([2]; NCI-H1650, 72 h, read-out: cell viability (survival rate), H1650, drug 10 μM, 72 hours, WST-1, OD450 nm): 53.1% | viability at 10 µM [3]: 100% | viability at 10 µM [4]: 91.1% | viability at 10 µM [5]: 75.6% | viability at 10 µM [6]: 79.9% | viability at 10 µM ([7]; MCF7, 72 h, read-out: The results of antibiotic drug inhibiting cancer cell lines (cell viability analysis), MCF-7, MCF-7, repeated experiment): 79.1% | viability at 10 µM ([7]; MCF7, 72 h, read-out: cell viability (survival rate), MCF7, drug 10 μM, 72 hours, WST-1, OD450 nm): 71.1% | viability at 10 µM [8]: 67.1% | viability at 10 µM [9]: 106% | viability at 10 µM [10]: 93.4% | viability at 10 µM [11]: 86.5% | viability at 10 µM [12]: 66.2% | viability at 10 µM ([13]; HL-60, 72 h, read-out: cell viability (survival rate), HL-60, drug 10 μM, 72 hours, WST-1, OD450 nm): 97.6% | viability at 10 µM ([14]; MKN-45, 72 h, read-out: The results of antibiotic drug inhibiting cancer cell lines (cell viability analysis), MKN-45, MKN-45, repeated experiment): 114% | viability at 10 µM ([14]; MKN-45, 72 h, read-out: cell viability (survival rate), MKN-45, drug 10 μM, 72 hours, WST-1, OD450 nm): 89.2% | viability at 10 µM [15]: 84% | viability at 10 µM [16, 27]: 113% | viability at 10 µM ([16]; 72 h, read-out: cell viability (survival rate), TSGH, drug 10 μM, 72 hours, WST-1, OD450 nm): 98.5% | viability at 10 µM ([17]; 72 h, read-out: The results of antibiotic drug inhibiting cancer cell lines (cell viability analysis), AGS, repeated experiment): 90.6% | viability at 10 µM ([17]; 72 h, read-out: cell viability (survival rate), AGS, drug 10 μM, 72 hours, WST-1, OD450 nm): 49.4% | viability at 10 µM [18]: 100% | viability at 10 µM ([19]; 72 h, read-out: The results of antibiotic drug inhibiting cancer cell lines (cell viability analysis), LoVo, repeated experiment): 96% | viability at 10 µM ([19]; 72 h, read-out: cell viability (survival rate), LoVo, drug 10 μM, 72 hours, WST-1, OD450 nm): 82.4% | viability at 10 µM [20]: 109% | viability at 10 µM ([21]; 72 h, read-out: The results of antibiotic drug inhibiting cancer cell lines (cell viability analysis), HeLa, repeated experiment): 102% | viability at 10 µM ([22]; A-375, 72 h, read-out: The results of antibiotic drug inhibiting cancer cell lines (cell viability analysis), A375, A375, repeated experiment): 83.2% | viability at 10 µM ([22]; A-375, 72 h, read-out: cell viability (survival rate), A375, drug 10 μM, 72 hours, WST-1, OD450 nm): 52.2% | viability at 10 µM ([23]; HepG2, 72 h, read-out: The results of antibiotic drug inhibiting cancer cell lines (cell viability analysis), HepG2, HepG2, repeated experiment): 97.2% | viability at 10 µM ([23]; HepG2, 72 h, read-out: cell viability (survival rate), HepG2, drug 10 μM, 72 hours, WST-1, OD450 nm): 102% | viability at 10 µM ([24]; A549, 72 h, read-out: The results of antibiotic drug inhibiting cancer cell lines (cell viability analysis), A549, A549, repeated experiment): 91.5% | viability at 10 µM ([24]; A549, 72 h, read-out: cell viability (survival rate), A549, drug 10 μM, 72 hours, WST-1, OD450 nm): 55.9% | inhibition effect on different cancer cell lines [25]: significant inhibition effect | viability [26]: 89.7%

CCC[S+]([O-])c1ccc2[nH]c(NC(=O)OC)nc2c1 (stereo not shown) [Albendazole Oxide (Ricobendazole), Albendazole Oxide]
viability at 10 µM ([1]; 72 h, PC-3, repeated experiment, read-out: The results of antibiotic drug inhibiting cancer cell lines (cell viability analysis), PC-3): 78.7% | viability at 10 µM ([1]; drug 10 μM, 72 hours, WST-1, OD450 nm, read-out: cell viability (survival rate), PC3): 60.5% | viability at 10 µM ([2]; NCI-H1650, 72 h, H1650, repeated experiment, read-out: The results of antibiotic drug inhibiting cancer cell lines (cell viability analysis), H1650): 64.6% | viability at 10 µM ([2]; NCI-H1650, drug 10 μM, 72 hours, WST-1, OD450 nm, read-out: cell viability (survival rate), H1650): 59.5% | viability at 10 µM [3]: 86.1% | viability at 10 µM [4]: 72.1% | viability at 10 µM [5]: 50.2% | viability at 10 µM [6]: 57.1% | viability at 10 µM ([7]; MCF7, 72 h, MCF-7, repeated experiment, read-out: The results of antibiotic drug inhibiting cancer cell lines (cell viability analysis), MCF-7): 68.3% | viability at 10 µM ([7]; MCF7, drug 10 μM, 72 hours, WST-1, OD450 nm, read-out: cell viability (survival rate), MCF7): 62.3% | viability at 10 µM [8]: 76.3% | viability at 10 µM [9]: 97.9% | viability at 10 µM [10]: 81.1% | viability at 10 µM [11]: 67.6% | viability at 10 µM [12]: 92.4% | viability at 10 µM ([13]; HL-60, drug 10 μM, 72 hours, WST-1, OD450 nm, read-out: cell viability (survival rate), HL-60): 103% | viability at 10 µM ([14]; 72 h, MKN-45, repeated experiment, read-out: The results of antibiotic drug inhibiting cancer cell lines (cell viability analysis), MKN-45): 74.3% | viability at 10 µM ([14]; MKN-45, drug 10 μM, 72 hours, WST-1, OD450 nm, read-out: cell viability (survival rate), MKN-45): 60.8% | viability at 10 µM [15]: 84.8% | viability at 10 µM [16, 27]: 63.3% | viability at 10 µM ([16]; drug 10 μM, 72 hours, WST-1, OD450 nm, read-out: cell viability (survival rate), TSGH): 77.7% | viability at 10 µM ([17]; 72 h, AGS, repeated experiment, read-out: The results of antibiotic drug inhibiting cancer cell lines (cell viability analysis), AGS): 80% | viability at 10 µM ([17]; drug 10 μM, 72 hours, WST-1, OD450 nm, read-out: cell viability (survival rate), AGS): 34% | viability at 10 µM [18]: 102% | viability at 10 µM ([19]; 72 h, repeated experiment, read-out: The results of antibiotic drug inhibiting cancer cell lines (cell viability analysis), LoVo): 88.2% | viability at 10 µM ([19]; drug 10 μM, 72 hours, WST-1, OD450 nm, read-out: cell viability (survival rate), LoVo): 68.9% | viability at 10 µM [20]: 89.8% | viability at 10 µM ([21]; 72 h, repeated experiment, read-out: The results of antibiotic drug inhibiting cancer cell lines (cell viability analysis), HeLa): 49.4% | viability at 10 µM ([21]; drug 10 μM, 72 hours, WST-1, OD450 nm, read-out: cell viability (survival rate), HeLa): 56% | viability at 10 µM ([22]; A-375, 72 h, A375, repeated experiment, read-out: The results of antibiotic drug inhibiting cancer cell lines (cell viability analysis), A375): 66.5% | viability at 10 µM ([22]; A-375, drug 10 μM, 72 hours, WST-1, OD450 nm, read-out: cell viability (survival rate), A375): 92.9% | viability at 10 µM ([23]; 72 h, HepG2, repeated experiment, read-out: The results of antibiotic drug inhibiting cancer cell lines (cell viability analysis), HepG2): 92.9% | viability at 10 µM ([23]; HepG2, drug 10 μM, 72 hours, WST-1, OD450 nm, read-out: cell viability (survival rate), HepG2): 104% | viability at 10 µM ([24]; 72 h, A549, repeated experiment, read-out: The results of antibiotic drug inhibiting cancer cell lines (cell viability analysis), A549): 95.5% | viability at 10 µM ([24]; A549, drug 10 μM, 72 hours, WST-1, OD450 nm, read-out: cell viability (survival rate), A549): 155% | inhibition effect on different cancer cell lines [25]: significant inhibition effect | viability [26]: 91.3%
